Consider one molecule from ChEMBL document CHEMBL2331400, “Structure-based design and evaluation of naphthalene diimide G-quadruplex ligands as telomere targeting agents in pancreatic cancer cells” (J Med Chem, 2013).

The test system of test [1] is MIA PaCa-2. Nature of the test: Upregulation of TP73 gene expression in human MIAPaCa2 cells at sublethal concentration after 24 hrs by qPCR analysis. The format is functional, cell-based. Background: In qPCR the cycle at which signal appears reflects the starting amount.
For test [2], the system named is MIA PaCa-2. Nature of the test: Downregulation of NTHL1 gene expression in human MIAPaCa2 cells at 160 nM after 24 hrs by qPCR analysis. Format: functional, cell-based.
Test [3] relates to MIA PaCa-2. Nature of the test: Upregulation of UNG gene expression in human MIAPaCa2 cells at sublethal concentration after 24 hrs by qPCR analysis. Format: functional, cell-based.
The subject of a further test is WI-38. Nature of the test: Cytotoxicity against human WI38 cells assessed as growth inhibition after 96 hrs by SRB assay. Format: cell-based. Particulars: WI-38, 96 h. (The SRB assay estimates cell density from bound dye.)
In test [4] the test system is MIA PaCa-2. Nature of the test: Downregulation of NBN gene expression in human MIAPaCa2 cells at 20 to 160 nM after 24 hrs by qPCR analysis relative to solvent-treated control. The format is functional, cell-based.
Test [5] has as its system MIA PaCa-2. Nature of the test: Downregulation of CDKN1A gene expression in human MIAPaCa2 cells at subcytotoxic concentration after 24 hrs by qPCR analysis. The format is functional, cell-based.
Test [6] concerns MIA PaCa-2. Nature of the test: Inhibition of telomerase activity in human MIAPaCa2 cells assessed as telomere elongation up to 10 uM after 7 days by TRAP-LIG assay. The format is cell-based.
The subject of test [7] is MIA PaCa-2. Nature of the test: Downregulation of SLX4 gene expression in human MIAPaCa2 cells at 20 to 80 nM after 24 hrs by qPCR analysis relative to solvent-treated control. Format: functional.
The test system of test [8] is MIA PaCa-2. Nature of the test: Downregulation of RASSF1 gene expression in human MIAPaCa2 cells at 20 to 80 nM after 24 hrs by qPCR analysis relative to solvent-treated control. Format: functional.
Test [9] has as its system MIA PaCa-2. Nature of the test: Downregulation of BAX gene expression in human MIAPaCa2 cells at 20 to 160 nM after 24 hrs by qPCR analysis relative to solvent-treated control. Format: functional, cell-based.
The test system of test [10] is MIA PaCa-2. Nature of the test: Upregulation of CDKN1A gene expression in human MIAPaCa2 cells at cytotoxic concentration after 24 hrs by qPCR analysis. The format is functional, cell-based.
Test [11] relates to MIA PaCa-2. Nature of the test: Upregulation of PPM1D gene expression in human MIAPaCa2 cells at cytotoxic concentration after 24 hrs by qPCR analysis. The format is functional, cell-based.
Test [12] relates to MIA PaCa-2. Nature of the test: Downregulation of TP73 gene expression in human MIAPaCa2 cells at 160 nM after 24 hrs by qPCR analysis. Format: functional, cell-based.

Structures are written as SMILES. Activity calls are given as the source filed them. The calls are words filed in the database; no cut-off is given here.

Regarding `CN1CCN(CCCNc2cc3c4c(c(NCCCN5CCN(C)CC5)cc5c4c2C(=O)N(CCCN2CCOCC2)C5=O)C(=O)N(CCCN2CCOCC2)C3=O)CC1`, the result in the test on MIA PaCa-2 [1], in the test on MIA PaCa-2 [3] and in the test on MIA PaCa-2 [5] was inactive. The outcome in the test with MIA PaCa-2 [2], in the test with MIA PaCa-2 [4], with MIA PaCa-2 [9], in the test with MIA PaCa-2 [10], with MIA PaCa-2 [11] and in the test with MIA PaCa-2 [12] was Active. In addition, the IC50 (as a rule, the concentration at which inhibition is half-maximal) with WI-38 came to 230 nM. For the same molecule, the inhibition entry in the test with MIA PaCa-2 [6] was “inactive”. Also, the “fold change (FC)” value with MIA PaCa-2 [7] and with MIA PaCa-2 [8] was more than 2 each time.
